Our source for the Activity and Km values is ChEMBL document CHEMBL2073934, “Functional characterization of the mouse organic-anion-transporting polypeptide 2” (Biochim Biophys Acta, 2002).

Where a SMILES comes first, the peptide text is derived from it. [ ]: non-standard residue; d: D form.

Data set [1] deals with T1, Solute carrier organic anion transporter family member 1A4 (Mus musculus, UniProt Q9EP96).
T1 sequence (Q9EP96 whole entry): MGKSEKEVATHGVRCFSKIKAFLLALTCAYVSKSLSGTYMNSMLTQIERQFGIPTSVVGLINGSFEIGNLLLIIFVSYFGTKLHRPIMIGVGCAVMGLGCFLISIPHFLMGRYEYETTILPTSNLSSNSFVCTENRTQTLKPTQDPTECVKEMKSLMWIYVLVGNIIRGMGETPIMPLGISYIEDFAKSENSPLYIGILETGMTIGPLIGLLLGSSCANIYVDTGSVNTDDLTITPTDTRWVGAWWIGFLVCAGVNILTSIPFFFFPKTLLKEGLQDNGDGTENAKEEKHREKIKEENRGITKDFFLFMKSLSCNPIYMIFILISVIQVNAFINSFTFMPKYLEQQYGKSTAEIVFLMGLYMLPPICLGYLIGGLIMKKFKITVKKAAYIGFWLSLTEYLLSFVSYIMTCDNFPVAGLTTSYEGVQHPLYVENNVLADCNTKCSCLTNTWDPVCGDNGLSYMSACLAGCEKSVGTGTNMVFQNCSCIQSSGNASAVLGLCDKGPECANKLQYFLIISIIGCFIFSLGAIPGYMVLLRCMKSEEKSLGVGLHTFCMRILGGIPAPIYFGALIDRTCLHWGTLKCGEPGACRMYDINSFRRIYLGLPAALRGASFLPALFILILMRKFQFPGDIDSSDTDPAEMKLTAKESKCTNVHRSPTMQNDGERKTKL
Nature of the data set: (§1) TP_TRANSPORTER: uptake in Xenopus laevis oocytes. It counts as functional, cell-based. The note with it: oocyte.

Substrate in data set [2]: C[C@H]1O[C@@H](O[C@H]2[C@@H](O)C[C@H](O[C@H]3[C@@H](O)C[C@H](O[C@H]4CC[C@@]5(C)[C@H](CC[C@@H]6[C@@H]5C[C@@H](O)[C@]5(C)[C@@H](C7=CC(=O)OC7)CC[C@]65O)C4)O[C@@H]3C)O[C@@H]2C)C[C@H](O)[C@@H]1O
The description is as §1. It counts as functional, cell-based, Oocyte.

By Km is commonly meant the substrate concentration at which the rate is half of its maximum.

For the molecule `CC(C)C[C@@H]1NC(=O)[C@@H](C(C)C)NC(=O)[C@@H]2CCCN2C(=O)[C@@H](CC(=O)O)NC(=O)[C@@H](Cc2c[nH]c3ccccc23)NC1=O` [BQ-123] (cyclo(L[dW][dD]P[dV])), the Activity result in data set [1] was “substrate [+]”.

On to `C[C@]12CC[C@@H]3c4ccc(OS(=O)(=O)O)cc4CC[C@H]3[C@@H]1CCC2=O` [ESTRONE SULFURIC ACID], for which the Activity result in data set [1] was “substrate [+]”.

On to `C[C@@H]1O[C@@H](O[C@H]2C[C@@H](O)[C@]3(CO)[C@H]4[C@H](O)C[C@]5(C)[C@@H](C6=CC(=O)OC6)CC[C@]5(O)[C@@H]4CC[C@]3(O)C2)[C@H](O)[C@H](O)[C@H]1O` [OUABAIN], for which the Activity entry in data set [1] is “substrate [+]”.

Take `C[C@]12CC[C@H](OS(=O)(=O)O)CC1=CC[C@@H]1[C@@H]2CC[C@]2(C)C(=O)CC[C@@H]12` [PRASTERONE SULFURIC ACID]: the Activity result in data set [1] is “substrate [+]”.

With `O=C1OC(c2ccc(O)c(S(=O)(=O)[O-])c2)(c2ccc(O)c(S(=O)(=O)[O-])c2)c2c(Br)c(Br)c(Br)c(Br)c21.[Na+].[Na+]` [SULFOBROMOPHTHALEIN SODIUM], the Activity entry in data set [1] was “substrate [+]”.

B1: Solute carrier organic anion transporter family member 1A4 (Mus musculus) (protein)
chain: T1 sequence (Q9EP96 whole entry)
In the case of B1, the Km in data set [2] was determined as 5.7 µM.
